Measurements taken from US20090099177A1, “PYRIDYL COMPOUNDS” (priority 2006, published 2009).
Where a name gives a salt, the structure may show the parent alone.

What was measured:
[1] = target: T1, human prostanoid EP1 receptor (Homo sapiens, UniProt P34995); test: Binding assay for the human prostanoid EP1 receptor (competition with [3H]-PGE2); details: [3H]-PGE2 competition, human EP1, CHO-K1 membranes; averages of a number of experiments; read-out: pIC50 value (converted)
T1 construct: expressed in transfected cells; host or cells: CHO-K1 (membrane fraction)
T1 sequence (P34995 1-402): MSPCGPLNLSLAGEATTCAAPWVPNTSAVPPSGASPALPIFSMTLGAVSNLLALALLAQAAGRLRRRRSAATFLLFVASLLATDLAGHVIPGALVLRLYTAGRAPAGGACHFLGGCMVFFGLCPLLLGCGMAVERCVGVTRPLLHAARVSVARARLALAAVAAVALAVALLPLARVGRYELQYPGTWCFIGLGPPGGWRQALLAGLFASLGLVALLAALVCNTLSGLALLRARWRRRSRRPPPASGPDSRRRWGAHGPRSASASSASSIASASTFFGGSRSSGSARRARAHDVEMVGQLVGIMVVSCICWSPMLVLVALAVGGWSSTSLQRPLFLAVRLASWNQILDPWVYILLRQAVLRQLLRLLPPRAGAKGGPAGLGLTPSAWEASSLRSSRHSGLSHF
Method: Competition assay using [^3H]-PGE2.
Compound potencies are determined using a radioligand binding assay. In this assay compound potencies are determined from their ability to compete with tritiated prostaglandin E2 ([^3H]-PGE2) for binding to the human EP1 receptor.
This assay utilises Chinese hamster ovary-K1 (CHO-K1) cells into which a stable vector containing the EP1 cDNA has previously been transfected. Cells are cultured in suitable flasks containing culture medium such as DMEM:F-12 supplemented with 10% v/v foetal calf serum, 2 mM L-glutamine, 0.25 mg/ml geneticin, 10 μg/ml puromycin and 10 μM indomethacin.
Cells are detached from the culture flasks by incubation in calcium and magnesium free phosphate buffered saline containing 1 mM disodium ethylenediaminetetraacetic acid (Na2EDTA) and 10 μM indomethacin for 5 min. The cells are isolated by centrifugation at 250×g for 5mins and suspended in an ice cold buffer such as 50 mM Tris, 1 mM Na2EDTA, 140 mM NaCl, 10 μM indomethacin (pH 7.4). The cells are homogenised using a Polytron tissue disrupter (2×10 s burst at full setting), centrifuged at 48,000×g for 20mins and the pellet containing the membrane fraction is washed (optional) three times by suspension and centrifugation at 48,000×g for 20mins. The final membrane pellet is suspended in an assay buffer such as 10 mM 2-[N-morpholino]ethanesulphonic acid, 1 mM Na2EDTA, 10 mM MgCl2 (pH 6). Aliquots are frozen at −80° C. until required.
For the binding assay the cell membranes, competing compounds and [^3H]-PGE2 (3 nM final assay concentration) are incubated in a final volume of 100 μl for 30 min at 30° C. All reagents are prepared in assay buffer. Reactions are terminated by rapid vacuum filtration over GF/B filters using a Brandell cell harvester. The filters are washed with ice cold assay buffer, dried and the radioactivity retained on the filters is measured by liquid scintillation counting in Packard TopCount scintillation counter.
The data are analysed using non linear curve fitting techniques to determine the concentration of compound producing 50% inhibition of specific binding (IC50).

human EP1 receptor = target: T2, human EP1 receptor (Homo sapiens, UniProt P34995); test: human EP1 calcium mobilisation assay; type: cell-based; details: for Ki: human EP1, CHO-K1 cells, antagonism of PGE2, averages of a number of experiments, read-out: functional pKi value (converted)
T2 construct: expressed in transfected cells; host or cells: CHO-K1
T2 sequence (P34995 1-402): T1 sequence (P34995 1-402)
Method: Briefly, the antagonist properties of compounds are assessed by their ability to inhibit the mobilisation of intracellular calcium ([Ca^2+]i) in response to activation of EP1 or EP3 receptors by the natural agonist hormone prostaglandin E2 (PGE2). Increasing concentrations of antagonist reduce the amount of calcium that a given concentration of PGE2 can mobilise. The net effect is to displace the PGE2 concentration-effect curve to higher concentrations of PGE2. The amount of calcium produced is assessed using a calcium-sensitive fluorescent dye such as Fluo-4, AM and a suitable instrument such as a Fluorimetric Imaging Plate Reader (FLIPR). Increasing amounts of [Ca^2+]i produced by receptor activation increase the amount of fluorescence produced by the dye and give rise to an increasing signal. The signal may be detected using the FLIPR instrument and the data generated may be analysed with suitable curve-fitting software.
The human EP1 or EP3 calcium mobilisation assay (hereafter referred to as ‘the calcium assay’) utilises Chinese hamster ovary-K1 (CHO-K1) cells into which a stable (pCIN; BioTechniques 20 (1996): 102-110) vector containing either EP1 or EP3 cDNA has previously been transfected. Cells are cultured in suitable flasks containing culture medium such as DMEM:F-12 supplemented with 10% v/v foetal calf serum, 2 mM L-glutamine, 0.25 mg/ml geneticin, 100 μM flurbiprofen and 10 μg/ml puromycin.
For assay, cells are harvested using a proprietary reagent that dislodges cells such as Versene. Cells are re-suspended in a suitable quantity of fresh culture media for introduction into a 384-well plate. Following incubation for 24 hours at 37° C. the culture media is replaced with a medium containing Fluo-4 and the detergent pluronic acid, and a further incubation takes place. Concentrations of compounds are then added to the plate in order to construct concentration-effect curves. This may be performed on the FLIPR in order to assess the agonist properties of the compounds. Concentrations of PGE2 are then added to the plate in order to assess the antagonist properties of the compounds.
The data so generated may be analysed by means of a computerised curve-fitting routine. The concentration of compound that elicits a half-maximal inhibition of the calcium mobilisation induced by PGE2 (pIC50) may then be estimated.

Structure (SMILES)	IC50 [1] [nM]	Ki (human EP1 receptor) [nM]	IC50 (human EP1 receptor; human EP1 calcium mobilisation assay, read-out: pIC50 values (converted)) [nM]
CN(CCC#N)Cc1ccc(NC(=O)c2cccc(Cc3cc(Cl)ccc3OCc3ccc(Cl)cc3F)n2)cc1 [Example 57, 6-[(5-Chloro-2-{[(4-chloro-2-fluorophenyl)methyl]oxy}phenyl)methyl]-N-(4-{[(2-cyanoethyl)(methyl)amino]methyl}phenyl)-2-pyridinecarboxamide]	≤ 100	≤ 10000	
Fc1ccc2[nH]c(-c3cccc(Cc4cc(Cl)ccc4OCc4ccccc4)n3)nc2c1 [Example 36, 2-[6-({5-Chloro-2-[(phenylmethyl)oxy]phenyl}methyl)-2-pyridinyl]-5-fluoro-1H-benzimidazolehydrochloride]	≤ 100	≤ 316	
CC(C)COc1ccc(Cl)cc1Cc1cccc(NC(=O)c2ccc(CO)cc2)n1 [Example 62, N-[6-({5-Chloro-2-[(2-methylpropyl)oxy]phenyl}methyl)-2-pyridinyl]-4-(hydroxymethyl)benzamide]	≤ 100	≤ 10000	
CC(C)COc1ccc(Cl)cc1Cc1cccc(-c2nc3nccnc3[nH]2)n1 [Example 22, 2-[6-({5-Chloro-2-[(2-methylpropyl)oxy]phenyl}methyl)-2-pyridinyl]-1H-imidazo[4,5-b]pyrazine hydrochloride]	≤ 100	≤ 316	
Fc1cc(Cl)ccc1COc1ccc(Cl)cc1Cc1cccc(-c2nc3cncnc3[nH]2)n1 [Example 20, 8-{6-[(5-Chloro-2-{[(4-chloro-2-fluorophenyl)methyl]oxy}phenyl)methyl]-2-pyridinyl}-1H-purinehydrochloride]	≤ 100	≤ 316	
Fc1cc(Cl)ccc1COc1ccc(Cl)cc1Cc1cccc(-c2nc3ccccc3[nH]2)n1 [Example 19, 2-{6-[(5-Chloro-2-[([(4-chloro-2-fluorophenyl)methyl]oxy}phenyl)methyl]-2-pyridinyl]-1H-benzimidazole Hydrochloride]	≤ 100	≤ 316	
O=C(Nc1cccc(Cc2cc(Cl)ccc2OCc2ccccc2)n1)C1CCCCC1 [Example 4, N-[6-({5-Chloro-2-[(phenylmethyl)oxy]phenyl}methyl)-2-pyridinyl]cyclohexanecarboxamide]	≤ 100	≤ 316	
CC(C)(C)CC(=O)Nc1cccc(Cc2cc(Cl)ccc2OCc2ccccc2)n1 [Example 5, N-[6-({5-Chloro-2-[(phenylmethyl)oxy]phenyl}methyl)-2-pyridinyl]-3,3-dimethylbutanamide]	≤ 100	≤ 316	
COc1ccc2[nH]c(-c3cccc(Cc4cc(Cl)ccc4OCc4ccccc4)n3)nc2c1 [Example 31, 2-[6-({5-Chloro-2-[(phenylmethyl)oxy]phenyl}methyl)-2-pyridinyl]-5-(methyloxy)-1H-benzimidazolehydrochloride]	≤ 100	≤ 316	
Cc1ccc2[nH]c(-c3cccc(Cc4cc(Cl)ccc4OCc4ccccc4)n3)nc2c1 [Example 29, 2-[6-({5-Chloro-2-[(phenylmethyl)oxy]phenyl}methyl)-2-pyridinyl]-5-methyl-1H-benzimidazole Hydrochloride]	≤ 100	≤ 10000	
CC(C)(C)OC(=O)Nc1cccc(Cc2cc(Cl)ccc2OCc2ccc(Cl)cc2F)n1 [Example 61, 1,1-Dimethylethyl {6-[(5-chloro-2-{[(4-chloro-2-fluorophenyl)methyl]oxy}phenyl)methyl]-2-pyridinyl}carbamate Hydrochloride]	≤ 100	≤ 316	
Clc1ccc(OCc2ccccc2)c(Cc2cccc(-c3nc4cc(Cl)ccc4[nH]3)n2)c1 [Example 35, 5-Chloro-2-[6-({5-Chloro-2-[(phenylmethyl)oxy]phenyl}methyl)-2-pyridinyl]-1H-benzimidazole hydrochloride]	≤ 100	≤ 316	
Clc1ccc(OCc2ccccc2)c(Cc2cccc(-c3nc4ccc(N5CCOCC5)cc4[nH]3)n2)c1 [Example 28, 2-[6-({5-Chloro-2-[(phenylmethyl)oxy]phenyl}methyl)-2-pyridinyl]-5-(4-morpholinyl)-1H-benzimidazolehydrochloride]	≤ 100	≤ 316	
CN(C)c1ccc2nc(-c3cccc(Cc4cc(Cl)ccc4OCc4ccccc4)n3)[nH]c2c1 [Example 27, 2-[6-({5-Chloro-2-[(phenylmethyl)oxy]phenyl}methyl)-2-pyridinyl]-N,N-dimethyl-1H-benzimidazol-5-aminehydrochloride]	≤ 100	≤ 10000	
O=C(Nc1ccc(CO)cc1)c1cccc(Cc2cc(Cl)ccc2OCc2ccc(Cl)cc2F)n1 [Example 13, 6-[(5-Chloro-2-{[(4-chloro-2-fluorophenyl)methyl]oxy}phenyl)methyl]-N-[4-(hydroxymethyl)phenyl]-2-pyridinecarboxamide]	≤ 100	≤ 10000	
Clc1ccc(OCc2ccccc2)c(Cc2cccc(-c3nc4ccccc4[nH]3)n2)c1 [Example 34, 2-[6-({5-Chloro-2-[(phenylmethyl)oxy]phenyl}methyl)-2-pyridinyl]-1H-benzimidazole hydrochloride]	≤ 100	≤ 316	
CNCc1ccc2nc(-c3cccc(Cc4cc(Cl)ccc4OCC(C)C)n3)[nH]c2c1 [Example 52, ({2-[6-({5-Chloro-2-[(2-methylpropyl)oxy]phenyl}methyl)-2-pyridinyl]-1H-benzimidazol-5-yl}methyl)methylaminehydrochloride]	≤ 100	≤ 316	
Clc1ccc(OCc2ccccc2)c(Cc2cccc(-c3nc4ncccc4[nH]3)n2)c1 [Example 30, 2-[6-({5-Chloro-2-[(phenylmethyl)oxy]phenyl}methyl)-2-pyridinyl]-1H-imidazo[4,5-b]pyridinehydrochloride]	≤ 100	≤ 316	
CN(C)Cc1ccc2nc(-c3cccc(Cc4cc(Cl)ccc4OCc4ccc(Cl)cc4F)n3)[nH]c2c1 [Example 58, [(2-{6-[(5-Chloro-2-{[(4-chloro-2-fluorophenyl)methyl]oxy}phenyl)methyl]-2-pyridinyl}-1H-benzimidazol-5-yl)methyl]dimethylamine Hydrochloride]	≤ 100		> 10000
CC(C)COc1ccc(Cl)cc1Cc1cccc(-c2nc3ccccc3[nH]2)n1 [Example 44, 2-[6-({5-Chloro-2-[(2-methylpropyl)oxy]phenyl}methyl)-2-pyridinyl]-1H-benzimidazole]	≤ 100	≤ 316	
